Measurements from the Kinase Knowledgebase extract (Sharma et al. 2016).

Target: CDK2 (human) (UniProt P24941)
Assay: Enzyme Assay

SMILES	IC50 [nM]
CC(C)c1cnn2c(NCc3ccccc3S(=O)(=O)N3CCN(C)CC3)nc(O[C@@H]3CCCNC3)nc12	50 to 500
CC(C)c1cnn2c(NCc3cccc4c3OCCCO4)nc(O[C@@H]3CCCNC3)nc12	50 to 500
CC(C)c1cnn2c(NCc3ccccc3-c3cccs3)nc(O[C@@H]3CCCNC3)nc12	≤ 50
CNC(=O)c1ccccc1CNc1nc(O[C@@H]2CCCNC2)nc2c(C(C)C)cnn12	50 to 500
CC(C)c1cnn2c(NCc3ccccc3S(=O)(=O)N3CCCC3)nc(O[C@@H]3CCCNC3)nc12	50 to 500
CC(C)c1cnn2c(NCc3ccccc3S(=O)(=O)N(C)C)nc(O[C@@H]3CCCNC3)nc12	50 to 500
CC(C)c1cnn2c(NCc3ccccc3-c3ccccn3)nc(O[C@@H]3CCCNC3)nc12	50 to 500
CC(C)c1cnn2c(NCc3ccccc3OS(=O)C(C)(C)C)nc(O[C@@H]3CCCNC3)nc12 (stereo partly specified)	50 to 500
CC(C)c1cnn2c(NCc3cccc(Cl)c3Cl)nc(O[C@@H]3CCCNC3)nc12	50 to 500
CC(C)c1cnn2c(NCc3ccccc3-c3nnnn3C)nc(O[C@@H]3CCCNC3)nc12	50 to 500
CC(C)c1cnn2c(NCc3ccccc3OC(F)F)nc(OC3CCN(C)CC3)nc12	50 to 500
CC(C)c1cnn2c(NCc3ccccc3C(F)(F)F)nc(OC3CCN(C)CC3)nc12	≤ 50
CC(C)c1cnn2c(NCc3ccccc3-n3cccn3)nc(NC3CCCNC3)nc12 (stereo unspecified)	50 to 500
CC(C)c1cnn2c(NCc3ccccc3-c3cccs3)nc([S+]([O-])C3CCNCC3)nc12 (stereo unspecified)	50 to 500
CC(C)c1cnn2c(NCc3cccc4ccncc34)nc(O[C@@H]3CCCNC3)nc12	50 to 500
CC(C)c1cnn2c(NCc3ccccc3S(C)(=O)=O)nc(O[C@@H]3CCCNC3)nc12	50 to 500
CC(C)c1cnn2c(NCc3ccccc3-n3cccn3)nc(S[C@@H]3CCCNC3)nc12	50 to 500
CC(C)c1cnn2c(NCc3ccccc3OS(C)(=O)=O)nc(O[C@@H]3CCCNC3)nc12	50 to 500
CC(C)c1cnn2c(NCc3cccc4c3cnn4C)nc(O[C@@H]3CCCNC3)nc12	≤ 50
CC(C)Oc1ccccc1CNc1nc(O[C@@H]2CCCNC2)nc2c(C(C)C)cnn12	50 to 500
CC(C)c1cnn2c(NCc3cccc4cc[n+]([O-])cc34)nc(O[C@@H]3CCCNC3)nc12	50 to 500
CC(C)c1cnn2c(NCc3ccccc3-c3cccs3)nc(OC3CCN(C)CC3)nc12	50 to 500
CNS(=O)(=O)c1ccccc1CNc1nc(O[C@@H]2CCCNC2)nc2c(C(C)C)cnn12	50 to 500
CNC1CCN(c2nc(NCc3ccccc3-n3cccn3)n3ncc(C(C)C)c3n2)CC1	50 to 500
CC(C)c1cnn2c(NCc3c(F)cccc3-n3cccn3)nc(O[C@@H]3CCCNC3)nc12	50 to 500
CC(C)c1cnn2c(NCc3cccc4[nH]ncc34)nc(O[C@@H]3CCCNC3)nc12	≤ 50
CC(C)c1cnn2c(NCc3ccccc3-n3cccn3)nc(N3CCC(N(C)C)CC3)nc12	50 to 500

The next lines start with the values.

IC50 [nM]	SMILES
50 to 500	COc1ccccc1CNc1nc(OC2CCN(C)CC2)nc2c(C(C)C)cnn12
50 to 500	CC(C)c1cnn2c(NCc3ccccc3-n3cccn3)nc([S+]([O-])C3CCNCC3)nc12 (stereo unspecified)
50 to 500	CC(C)c1cnn2c(NCc3ccccc3[S+](C)[O-])nc(O[C@@H]3CCCNC3)nc12 (stereo partly specified)
50 to 500	CC(C)c1cnn2c(NCc3ccccc3-c3cccs3)nc(OC3CCNCC3)nc12
50 to 500	CC(C)c1cnn2c(NCc3ccccc3-n3ccnc3)nc(O[C@@H]3CCCNC3)nc12
50 to 500	CC(C)c1cnn2c(NCc3ccccc3Br)nc(O[C@@H]3CCCNC3)nc12
50 to 500	CC(C)c1cnn2c(NCc3ccccc3-n3cc(Cl)cn3)nc(O[C@@H]3CCCNC3)nc12
50 to 500	CC(C)c1cnn2c(NCc3ccccc3-n3cccn3)nc(NC3CCNC3)nc12 (stereo unspecified)
50 to 500	CC(C)c1cnn2c(NCc3cccc4cccnc34)nc(O[C@@H]3CCCNC3)nc12
50 to 500	CC(C)c1cnn2c(NCc3ccccc3C(N)=O)nc(O[C@@H]3CCCNC3)nc12
50 to 500	CC(C)c1cnn2c(NCc3ccccc3-n3cncn3)nc([S+]([O-])C3CCNCC3)nc12 (stereo unspecified)
≤ 50	CC(C)c1cnn2c(NCc3cc(F)ccc3-n3cccn3)nc(O[C@@H]3CCCNC3)nc12
≤ 50	CC(C)c1cnn2c(NCc3ccccc3-n3cncn3)nc(O[C@@H]3CCNC3)nc12
50 to 500	CC(C)c1cnn2c(NCc3ccccc3-n3cncn3)nc(OC3CCN(C)CC3)nc12
50 to 500	CC(C)c1cnn2c(NCc3ccccc3-n3cccn3)nc(OC3C[C@H]4CNC[C@@H]34)nc12 (stereo partly specified)
≤ 50	CC(C)c1cnn2c(NCc3ccccc3-n3cccn3)nc(O[C@@H]3CCCNC3)nc12
≤ 50	CC(C)c1cnn2c(NCc3ccccc3-c3nnn(C)n3)nc(O[C@@H]3CCCNC3)nc12
50 to 500	CC(C)c1cnn2c(NCc3ccccc3N3CCCC3=O)nc(O[C@@H]3CCCNC3)nc12
50 to 500	CSc1ccccc1CNc1nc(O[C@@H]2CCCNC2)nc2c(C(C)C)cnn12
50 to 500	CC(C)c1cnn2c(NCc3ccccc3-n3cccn3)nc(OC3CCNCC3)nc12
50 to 500	CC(C)c1cnn2c(NCc3ccccc3-c3cccs3)nc(O[C@@H]3CCNC3)nc12
≤ 50	CC(C)c1cnn2c(NCc3ccccc3-n3cccn3)nc(O[C@@H]3CCNC3)nc12
50 to 500	CC(C)c1cnn2c(NCc3ccccc3Cl)nc(OC3CCN(C)CC3)nc12
50 to 500	CC(C)c1cnn2c(NCc3ccccc3-n3cccn3)nc(OC3C=CCNC3)nc12 (stereo unspecified)
≤ 50	CC(C)c1cnn2c(NCc3ccccc3-n3cncn3)nc(N[C@@H]3CCCNC3)nc12
50 to 500	CC(C)c1cnn2c(NCc3ccccc3-n3ccnc3)nc(O[C@@H]3CCNC3)nc12
≤ 50	CC(C)c1cnn2c(NCc3cccc(F)c3-n3cccn3)nc(O[C@@H]3CCCNC3)nc12
50 to 500	CC(C)c1cnn2c(NCc3ccccc3-n3cncn3)nc(OC3CCNCC3)nc12
≤ 50	CC(C)c1cnn2c(NCc3ccc(F)cc3-n3cccn3)nc(O[C@@H]3CCCNC3)nc12
